Measurements reported in patent publication US11958861B2, “Spirocyclic lactams as JAK2 V617F inhibitors” (Incyte Corporation, priority 2021, dated 2024).
Where a name gives a salt, the structure may show the parent alone.

Columns and labels:
[1] = biological target: T1, catalytic domain (JH1, amino acids 808-1132) of human JAK2 (Homo sapiens, UniProt O60674); assay: JAK2 HTRF Enzyme Activity Assay; assay type: biochemical; conditions: ATP 30 μM, read-out: ENZ 30UMATP
T1 construct: catalytic domain (JH1, amino acids 808-1132) of human JAK2; His (N); purchased BPS Bioscience 40450; host or cells: baculovirus expression system
Experimental: Example D. JAK2 HTRF Enzyme Activity Assay
JAK2 enzyme activity assays utilize catalytic domain (JH1, amino acids 808-1132) of human JAK2 expressed as N-terminal His-tagged protein in a baculovirus expression system (BPS Bioscience, Catalog #40450). The assays was conducted in black 384-well polystyrene plates in a final reaction volume of 20 μL. JAK2 (0.015 nM) was incubated with compounds (100 nL serially diluted in DMSO) in the presence of ATP (30 μM or 1 mM) and 500 nM Biotin-labeled […] (SEQ ID NO.: 1) peptide (BioSource International, custom synthesis) in assay buffer (50 mM Tris, pH=7.5, 10 mM MgCl2, 0.01% Brij-35, 0.1% BSA, 1 mM EGTA, 5% Glycerol and 5 mM DTT) for 60 minutes at 25° C. The reactions were stopped by the addition of 10 μL of detection buffer (50 mM Tris, pH 7.8, 0.5 mg/mL BSA, 150 mM NaCl), supplemented with EDTA, LANCE Eu-W1024 anti-phosphotyrosine (PY20), (PerkinElmer, Catalog #AD0067) and Streptavidin SureLight APC (PerkinElmer Catalog #CR130-100), for a final concentration of 15 mM, 1.5 nM and 75 nM, respectively. HTRF signals were read after 30 minutes incubation at room temperature on a PHERAstar FS plate reader (BMG LABTECH). Data was analyzed with IDBS XLfit and GraphPad Prism 5.0 software using a four parameter dose response curve to determine IC50 for each compound.

[2] = biological target: T2, pseudo-kinase domain (JH2, amino-acids 536-812) of human Wild Type JAK2 (Homo sapiens, UniProt O60674, F794H/W659A/W777A); assay: JAK2 LanthaScreen JH2-WT Binding Assay; conditions: 1 hour at 25° C.
T2 construct: pseudo-kinase domain (JH2, amino-acids 536-812 with 3 surface mutations W659A, W777A, F794H); purchased BPS Bioscience 79463; host or cells: baculovirus expression system
Experimental: Example B. JAK2 LanthaScreen JH2-WT Binding Assay
(§1) JAK2 JH2-WT binding assay utilizes pseudo-kinase domain (JH2, amino-acids 536-812 with 3 surface mutations W659A, W777A, F794H) of human Wild Type JAK2 expressed as C-terminal His-Avi-tagged, biotinylated protein in a baculovirus expression system (BPS Bioscience, Catalog #79463). The assay was conducted in black 384-well polystyrene plates in a final reaction volume of 20 μL. JAK2 JH2-WT (0.145 nM) was incubated with compounds (100 nL serially diluted in DMSO) in the presence of 50 nM Fluorescent JAK2-JH2 Tracer (MedChem Express Catalog #HY-102055) and 0.25 nM Streptavidin-Tb cryptate (Cisbio Part #610SATLB) in assay buffer (50 mM Tris, pH=7.5, 10 mM MgCl2, 0.01% Brij-35, 0.1% BSA, 1 mM EGTA, 5% Glycerol and 5 mM DTT). Non-specific binding was accessed in the presence of 2 mM ATP. After incubation for 1 hour at 25° C., LanthaScreen signals were read on a PHERAstar FS plate reader (BMG LABTECH). Data was analyzed with IDBS XLfit and GraphPad Prism 5.0 software using a four parameter dose response curve to determine IC50 for each compound.

[3] = biological target: T3, catalytic domain (JH1, amino acids 826-1132) of human JAK2 (Homo sapiens, UniProt O60674); assay: JAK2 LanthaScreen JH1 Binding Assay; conditions: 2 hours at 25° C.
T3 construct: catalytic domain (JH1, amino acids 826-1132) of human JAK2; purchased Carna Biosciences 08-445-20N; host or cells: baculovirus expression system
Experimental: Example A. JAK2 LanthaScreen JH1 Binding Assay
JAK2 JH1 binding assay utilizes catalytic domain (JH1, amino acids 826-1132) of human JAK2 expressed as N-terminal FLAG-tagged, biotinylated protein in a baculovirus expression system (Carna Biosciences, Product #08-445-20N). The assay was conducted in black 384-well polystyrene plates in a final reaction volume of 20 μL. JAK2 JH1 (1.5 nM) was incubated with compounds (100 nL serially diluted in DMSO) in the presence of 50 nM Fluorescent JAK2-JH1 Tracer and 0.5 nM Streptavidin-Tb cryptate (Cisbio Part #610SATLB) in assay buffer (50 mM Tris, pH=7.5, 10 mM MgCl2, 0.01% Brij-35, 0.1% BSA, 1 mM EGTA, 5% Glycerol and 5 mM DTT). Non-specific binding was accessed in the presence of 2 mM ATP. After incubation for 2 hours at 25° C., LanthaScreen signals were read on a PHERAstar FS plate reader (BMG LABTECH). Data was analyzed with IDBS XLfit and GraphPad Prism 5.0 software using a four parameter dose response curve to determine IC50 for each compound.

[4] = biological target: T4, pseudo-kinase domain (JH2, amino-acids 536-812) of human V617F mutant JAK2 (Homo sapiens, UniProt O60674, F794H/V617F/W659A/W777A); assay: JAK2 LanthaScreen JH2-V617F Binding Assay; conditions: 1 hour at 25° C.
T4 construct: pseudo-kinase domain (JH2, amino-acids 536-812 with 3 surface mutations W659A, W777A, F794H); purchased BPS Bioscience 79498; host or cells: baculovirus expression system
Experimental: Example C. JAK2 LanthaScreen JH2-V617F Binding Assay
as §1, with “JH2-V617F” for “JH2-WT”, “V617F mutant” for “Wild Type”, “#79498).” for “#79463).”, “JH2-V617F (0.26” for “JH2-WT (0.145”

T2 sequence (O60674 536-812 W659A/W777A/F794H): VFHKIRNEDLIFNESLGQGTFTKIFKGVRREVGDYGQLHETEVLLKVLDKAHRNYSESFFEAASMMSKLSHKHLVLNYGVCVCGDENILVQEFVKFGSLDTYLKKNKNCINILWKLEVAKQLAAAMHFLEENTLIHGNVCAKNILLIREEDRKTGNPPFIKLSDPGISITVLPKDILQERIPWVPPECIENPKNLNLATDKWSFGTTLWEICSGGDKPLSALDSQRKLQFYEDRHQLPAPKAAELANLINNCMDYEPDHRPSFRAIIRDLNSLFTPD
T4 sequence (O60674 536-812 V617F/W659A/W777A/F794H): as the sequence (O60674 536-812 W659A/W777A/F794H) above, with V82F counted along it
T1 sequence (O60674 808-1132): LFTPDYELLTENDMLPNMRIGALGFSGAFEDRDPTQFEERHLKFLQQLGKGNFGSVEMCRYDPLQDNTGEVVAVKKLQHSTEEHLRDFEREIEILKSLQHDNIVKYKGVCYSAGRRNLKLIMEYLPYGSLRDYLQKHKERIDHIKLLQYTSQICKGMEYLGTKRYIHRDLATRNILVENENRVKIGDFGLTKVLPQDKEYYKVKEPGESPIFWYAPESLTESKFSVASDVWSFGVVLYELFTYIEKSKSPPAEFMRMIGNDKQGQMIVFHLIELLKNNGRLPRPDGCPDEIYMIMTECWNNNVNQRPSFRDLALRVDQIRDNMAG
T3 sequence (O60674 826-1132): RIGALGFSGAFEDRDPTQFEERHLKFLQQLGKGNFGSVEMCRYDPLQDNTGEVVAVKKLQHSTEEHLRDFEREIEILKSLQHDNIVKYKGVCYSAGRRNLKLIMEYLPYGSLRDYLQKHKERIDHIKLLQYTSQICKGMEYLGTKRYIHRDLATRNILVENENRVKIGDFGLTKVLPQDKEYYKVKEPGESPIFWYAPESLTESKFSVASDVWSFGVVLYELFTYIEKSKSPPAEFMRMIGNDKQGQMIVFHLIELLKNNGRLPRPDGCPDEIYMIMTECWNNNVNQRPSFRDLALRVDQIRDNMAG

SMILES	IC50 [1]	IC50 [2]	IC50 [3]	IC50 [4]
CN1C(=O)C2(CCN(S(=O)(=O)C3(CC#N)CC3)C2)c2c1cnc1[nH]c(-c3cnn(C)c3)c(-c3ccc4c(cnn4C)c3)c21 (racemic) [Example 71, 2-(1-((6-Methyl-1-(1-methyl-1H-indazol-5-yl)-2-(1-methyl-1H-pyrazol-4-yl)-7-oxo-6,7-dihydro-3H-spiro[dipyrrolo[2,3-b:3′,2′-d]pyridine-8,3′-pyrrolidin]-1′-yl)sulfonyl)cyclopropyl)acetonitrile, trifluoroacetate salt]	1250 to 2500 nM	≤ 100 nM	1250 to 2500 nM	≤ 100 nM
CON1C(=O)C2(CCN(CC3(CC#N)CC3)C2)c2c1cnc1[nH]c(-c3cnn(C)c3)c(-c3ccc4c(cnn4C)c3)c21 (racemic) [Example 72, 2-(1-((6-Methoxy-1-(1-methyl-1H-indazol-5-yl)-2-(1-methyl-1H-pyrazol-4-yl)-7-oxo-6,7-dihydro-3H-spiro[dipyrrolo[2,3-b:3′,2′-d]pyridine-8,3′-pyrrolidin]-1′-yl)methyl)cyclopropyl)acetonitrile, trifluoroacetate salt]	500 to 1250 nM	500 to 1250 nM	> 2500 nM	1250 to 2500 nM
CN1C(=O)C2(CCN(C3(C)CCS(=O)(=O)C3)CC2)c2c1cnc1[nH]c(-c3cnn(C)c3)c(-c3ccc4c(cnn4C)c3)c21 (racemic) [Example 78, 6-Methyl-1′-(3-methyl-1,1-dioxidotetrahydrothiophen-3-yl)-1-(1-methyl-1H-indazol-5-yl)-2-(1-methyl-1H-pyrazol-4-yl)-3,6-dihydro-7H-spiro[dipyrrolo[2,3-b:3′-2′-d]pyridine-8,4′-piperidin]-7-one]	500 to 1250 nM	≤ 100 nM	500 to 1250 nM	≤ 100 nM
COC(=O)NC1CC(CC#N)(N2CCC3(CC2)C(=O)N(C)c2cnc4[nH]c(-c5cnn(C)c5)c(-c5ccccc5)c4c23)C1 (single isomer, unassigned) [Example 27, Methyl (3-(cyanomethyl)-3-(6-methyl-2-(1-methyl-1H-pyrazol-4-yl)-7-oxo-1-phenyl-6,7-dihydro-3H-spiro[dipyrrolo[2,3-b:3′,2′-d]pyridine-8,4′-piperidin]-1′-yl)cyclobutyl)carbamate]	100 to 500 nM	≤ 100 nM	100 to 500 nM	≤ 100 nM
CCS(=O)(=O)N1CCC[C@]2(CC1)C(=O)N(C)c1cnc3[nH]c(-c4cnn(C(C)C)c4)c(-c4ccc5c(cnn5C)c4)c3c12 (single isomer, unassigned) [Example 53a]	> 2500 nM	100 to 500 nM	> 2500 nM	500 to 1250 nM
CCS(=O)(=O)N1CCC[C@@]2(CC1)C(=O)N(C)c1cnc3[nH]c(-c4cnn(C(C)C)c4)c(-c4ccc5c(cnn5C)c4)c3c12 (single isomer, unassigned) [Example 53b]	100 to 500 nM	≤ 100 nM	100 to 500 nM	≤ 100 nM
CN1C(=O)[C@]2(CCN(CC3(CC#N)CC3)C2)c2c1cnc1[nH]c(-c3cnn(C)c3)c(-c3ccc4c(cnn4C)c3)c21 (single isomer, unassigned) [Example 65]	> 2500 nM	≤ 100 nM	> 2500 nM	≤ 100 nM
CN1C(=O)[C@@]2(CCN(CC3(CC#N)CC3)C2)c2c1cnc1[nH]c(-c3cnn(C)c3)c(-c3ccc4c(cnn4C)c3)c21 (single isomer, unassigned) [Example 66]	500 to 1250 nM	≤ 100 nM	500 to 1250 nM	≤ 100 nM
CO[C@H]1CC[C@@](CC#N)(N2CCC3(CC2)C(=O)N(C)c2cnc4[nH]c(-c5cnn(C)c5)c(-c5ccc6c(cnn6C)c5)c4c23)CC1 (single isomer, unassigned) [Example 75a, 2-(4-Methoxy-1-(6-methyl-1-(1-methyl-1H-indazol-5-yl)-2-(1-methyl-1H-pyrazol-4-yl)-7-oxo-6,7-dihydro-3H-spiro[dipyrrolo[2,3-b:3′,2′-d]pyridine-8,4′-piperidin]-1′-yl)cyclohexyl)acetonitrile]	100 to 500 nM	≤ 100 nM	100 to 500 nM	≤ 100 nM
[2H]C([2H])([2H])n1ncc2cc(-c3c(-c4cnn(C)c4)[nH]c4ncc5c(c34)C3(CCN([C@](C)(CC#N)COC)CC3)C(=O)N5C)ccc21 (single isomer, unassigned) [Example 80a]	1250 to 2500 nM	≤ 100 nM	1250 to 2500 nM	≤ 100 nM
[2H]C([2H])([2H])n1ncc2cc(-c3c(-c4cnn(C)c4)[nH]c4ncc5c(c34)C3(CCN([C@@](C)(CC#N)COC)CC3)C(=O)N5C)ccc21 (single isomer, unassigned) [Example 80b]	500 to 1250 nM	≤ 100 nM	500 to 1250 nM	≤ 100 nM
[2H]C([2H])([2H])N1C(=O)C2(CCCN(S(=O)(=O)C3(C)CC3)CC2)c2c1cnc1[nH]c(-c3cnn(C(C)C)c3)c(-c3ccc4c(cnn4C)c3)c21 (single isomer, unassigned) [Example 103, 2′-(1-Isopropyl-1H-pyrazol-4-yl)-6′-(methyl-d3)-1′-(1-methyl-1H-indazol-5-yl)-1-((1-methylcyclopropyl)sulfonyl)-3′,6′-dihydro-7′H-spiro[azepane-4,8′-dipyrrolo[2,3-b:3′,2′-d]pyridin]-7′-one, trifluoroacetate salt]	500 to 1250 nM	≤ 100 nM	100 to 500 nM	≤ 100 nM
